Laboratory results reported in publication PMC11472388 (ACS Medicinal Chemistry Letters, 2024).
Several values for one entry are separate records, joined by “and”; a condition that tells them apart may be missing. Equal values may be shown once. Read-outs that look alike come from different tables or passages of the source. Where a SMILES comes first, the peptide text is derived from it. Bridges are numbered along the chain shown (N, C = ends). [ ]: non-standard residue; d: D form. The star is where a group is joined. βGlc = OC[C@H]1O[C@@H](*)[C@H](O)[C@@H](O)[C@@H]1O; 1Nal = N[C@@H](Cc1cccc2ccccc12)C(=O)O

Assays:
[1] = system: male and female CD-1 mice; assay: Tail flick (TF) antinociception; assay type: in vivo; settings: for ED50: Mus musculus, sc
From the text: (§1) using the microdialysis probe recovery rate. All data are presented as mean ± SEM.
For the dialysate, the mean
Animals: Male and female CD-1 and DBA mice, 21–29 g at testing, were obtained from Charles River (Wilmington, MA) and housed in a 12-h light/dark cycle. All experiments were approved by the Tulane Institutional Animal Care and Use Committee and conducted according to the NIH Guide for the Care and Use of Laboratory Animals. All efforts were made to minimize animal suffering and to reduce the number of animals used.
Tail Flick (TF): CD1 mice were used for this test. The latency to withdraw the tail from a heat source was automatically measured (IITC, Woodland Hills, CA). […]
with a cutoff time of 9 s to prevent tissue damage. Percent Maximum Possible Effect (%MPE) was determined as [(latency-baseline latency)/(9-baseline latency)]*100. […]
(§2) calculated and used as the peak response for determining ED50’s. Initial tests, based on previous studies with ZH853, were 3h in duration.
(§3) Additional subgroups (n = 4-5) were therefore tested for 5h. […] For the time course (Figure 3) […]
(§4) animals were used. Duration of antinociception was assessed using both the area under the curve (AUC) and duration of antinociception, calculated as the time from the first to the last time point greater than or equal to 50% MPE.
(§5) Hot Plate (HP) Test: This test reflects a supraspinally organized complex response, 6 and was used to assess the CNS activation of antinociception by peripherally (s.c.) administered […]
(§6) to reduce test compound requirements. The HP apparatus (IITC, Woodland Hills, CA) was set to 55.5°C, a temperature that elicited a response after 7-9 sec. Three baseline HP latencies to rapidly lift, lick, or shake the hind paws were taken prior to drug injection. Mice were removed from the HP after a maximum of 30 sec. Mice were injected with several analogs (0–5.6 mg/kg s.c.) and tested from 30–300 min after injection.
(%MPE) as described for TF.

male and female DBA mice = assay: animal or person; assay type: in vivo; settings: for ED50: Mus musculus, sc
Protocol: as §2, §3, §4, §5, §6
(%MPE) as described for TF. […]
each of those respective times was therefore calculated and used as the peak response for determining ED50’s. These values were used to calculate area under the curve (AUC). The duration of antinociception greater than 50% MPE was calculated as with TF.
Figure S3. Microdialysis and Pharmacokinetics Experiment Scheme.
Scheme depicts catheterization and microdialysis of the rat striatum. […]
endomorphin-1 analog (10 mg/kg; i.v.) ZH853 = ZH853•HCl (10 mg/kg; i.v.); aCSF = artificial cerebrospinal fluid. Created with BioRender.com (Agreement number MH26RXD2YP).
(1 picture or pasted object on this page, not shown here)

[2] = In vivo microdialysis and plasma pharmacokinetics (BBB penetration); parameters: species or system Sprague-Dawley rats; settings: rat, 10 mg/kg i.v.; for AUC Brain (estimated CSF, brain dialysate): striatal dialysate 0-60 min
Protocol: Following intravenous bolus injection, AUC, Cmax, half-life, and Tmax were determined in plasma and CSF dialysate, and the CSF/plasma ratios for AUC of the analogs were compared (Table 1).
Blood Brain Barrier Penetration and Pharmacokinetics
Animals: Male, Sprague-Dawley rats (225-325, n = 3/group; Envigo RMC Inc., Indianapolis, IN were used for in vivo microdialysis and pharmacokinetic experiments. Rats were co-housed in a temperature/humidity-controlled room on a 12-h reversed light/dark cycle. Food and water were available ad libitum. Animal studies were approved by The University of Arizona Institutional Animal Care and Use Committee, in accordance with NIH’s Care and Use of Laboratory Animals […]
Carotid Artery Catheterization and Microdialysis Surgery: Both procedures were performed in the same anesthetic event in accordance with our previous studies, with one exception, the left carotid artery was catheterized in each animal.2
In Vivo Microdialysis and Plasma Sampling: Blood-brain-barrier penetration and […]
same time to minimize injection site variations and individual differences between the animals. […]
following changes (Figure S3). 2, 4 The microdialysis probe (FZ-8-04; Amuza, San Diego, CA) was inserted into the striatum and perfused with aCSF (15 mM Tris HCl, 10 mM Tris base, 126 mM NaCl, 2.5 KCl, 1.2 mM NaH 2PO4, 2mM Na 2SO4, and adjusted pH to 7.4) at a rate of 0.5 µL/minute using one channel of a dual syringe pump (Fusion 101A Syringe Pump; Chemyx, Stafford, TX).
Boise, ID) and injected via the lateral tail vein. Brain dialysate samples used to estimate CSF were collected over 10 minutes, where t = 0 corresponds to the injection: t = -10, 0, 10, 20, 30, 40, 50, and 60 minutes. Blood was sampled to correspond with the median timepoint of the dialysate fraction, where t = 0 corresponds to the injection: t = -5, 0, 1, 5, 15, 25, 35, 45, and 55 […]
minutes. To separate plasma from whole blood, each sample was collected in ethylenediamine tetraacetic acid capillary tubes (CT-CB300-K2EDTA; Sarstedt, Nümbrecht, Germany), inverted repeatedly for 30 seconds, and centrifuged for 10 minutes at 2,000 x g in a refrigerated centrifuge (Galaxy Mini Centrifuge; VWR, Radnor, PA).
Brain dialysate (5 μL) and plasma (5 μL) were mixed with 5 μL and 50 μL of preservation solution […]
Enkephalin), respectively, and then vortexed for 10 seconds. 90 μL of cold acetone and deionized water (75:25, v/v) was added to precipitate dialysate and plasma proteins. After vortexing for 30 seconds, samples were centrifuged at 13,000 rpm for 15 minutes at 4 °C. The supernatant was evaporated using a Savant Speedvac concentrator. Dialysate and plasma samples were reconstituted in a 20 μL and 200 μL diluent (2% acetonitrile and 0.1% formic acid in deionized water), respectively. Samples were injected into the ThermoFisher UHPLC-MS/MS TSQ system.
Chromatographic separation was achieved on an ACQUITY UPLC HSS T3 C18 Column (100 Å, 1.8 µm, 2.1 X 100 mm) and VanGuard pre-column (HSS T3 1.8 μm, 2.1 X 5 mm) with the temperature set at 20 ℃. A water-acetonitrile gradient with a 0.3 mL/minute flow rate was used.
The mobile phases used were A: 0.1% v/v formic acid in deionized water and B: 0.1% v/v formic acid in acetonitrile. An injection volume of 8 µL was used. Detection was achieved using a Thermo Fisher TSQ Fortis Plus mass spectrometry instrument with an H-ESI ion source. The instrument was operated in a positive ion mode. The MRM mode was used for quantification using target […]
protonated ZH853 (MW 809.92 gmol-1). Concentrations were calculated using the response factor-concentration plot. Pharmacokinetic parameters, including the area under the curve (AUC), maximum plasma concentration (Cmax), the time to reach Cmax (Tmax), and half-life (t1/2), were […]
as §1

[3] = biological target: T1, kappa opioid receptor (KOR) (Homo sapiens, UniProt P41145); assay: Opioid receptor binding (NIMH PDSP), KOR
T1 construct: NIMH Psychoactive Drug Screening Program (PDSP)
T1 sequence (P41145 whole entry): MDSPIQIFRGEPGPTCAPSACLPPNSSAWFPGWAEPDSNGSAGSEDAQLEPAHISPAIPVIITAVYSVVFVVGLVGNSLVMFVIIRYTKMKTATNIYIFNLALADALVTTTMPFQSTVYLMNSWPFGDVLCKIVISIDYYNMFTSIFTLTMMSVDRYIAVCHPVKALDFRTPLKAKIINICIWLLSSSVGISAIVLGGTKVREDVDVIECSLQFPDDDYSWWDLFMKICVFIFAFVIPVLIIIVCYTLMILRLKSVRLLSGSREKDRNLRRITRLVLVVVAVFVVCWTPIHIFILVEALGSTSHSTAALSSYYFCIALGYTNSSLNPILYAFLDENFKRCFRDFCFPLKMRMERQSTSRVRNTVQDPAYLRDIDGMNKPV
From the text: (§7) Ki determinations at the 3 canonical opioid receptors, MOR, DOR. and KOR. were generously performed by the NIMH Psychoactive Drug Screening Program (PDSP), directed by Bryan L. Roth at the University of North Carolina at Chapel Hill and Project Officer Jamie Driscoll at NIMH, Bethesda. MD.

mu opioid receptor (MOR) = biological target: T2, mu opioid receptor (MOR) (Homo sapiens, UniProt P35372); assay: Opioid receptor binding (NIMH PDSP), MOR
T2 construct: NIMH Psychoactive Drug Screening Program (PDSP)
T2 sequence (P35372 whole entry): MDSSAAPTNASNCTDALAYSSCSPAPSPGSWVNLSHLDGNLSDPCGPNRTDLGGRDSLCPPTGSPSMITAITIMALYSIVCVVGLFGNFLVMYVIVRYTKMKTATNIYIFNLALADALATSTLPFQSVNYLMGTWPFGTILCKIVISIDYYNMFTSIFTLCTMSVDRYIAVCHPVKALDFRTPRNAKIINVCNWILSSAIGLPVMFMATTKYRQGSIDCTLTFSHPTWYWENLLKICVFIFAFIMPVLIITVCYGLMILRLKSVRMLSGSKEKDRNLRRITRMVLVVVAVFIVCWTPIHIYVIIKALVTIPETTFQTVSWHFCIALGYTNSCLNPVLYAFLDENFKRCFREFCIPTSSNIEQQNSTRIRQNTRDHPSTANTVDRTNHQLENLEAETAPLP
From the text: as §7

[4] = biological target: T3, delta opioid receptor (DOR) (Homo sapiens, UniProt P41143); assay: Opioid receptor binding (NIMH PDSP), DOR
T3 construct: NIMH Psychoactive Drug Screening Program (PDSP)
T3 sequence (P41143 whole entry): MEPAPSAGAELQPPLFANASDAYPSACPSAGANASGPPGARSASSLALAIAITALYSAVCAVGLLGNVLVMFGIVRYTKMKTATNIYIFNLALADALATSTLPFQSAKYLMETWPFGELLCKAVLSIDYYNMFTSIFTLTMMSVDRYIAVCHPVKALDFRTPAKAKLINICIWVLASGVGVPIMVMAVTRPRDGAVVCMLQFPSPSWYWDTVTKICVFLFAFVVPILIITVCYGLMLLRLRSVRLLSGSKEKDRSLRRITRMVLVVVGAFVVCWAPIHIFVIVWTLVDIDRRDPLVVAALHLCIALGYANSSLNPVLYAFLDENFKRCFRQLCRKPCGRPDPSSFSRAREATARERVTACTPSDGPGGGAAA
From the text: as §7

MOR = biological target: T4, MOR (Homo sapiens, UniProt P35372); assay: Gi signaling (inhibition of cAMP) in opioid-receptor-expressing HEK cells, MOR; assay type: cell-based
T4 construct: host or cells: HEK cells expressing the receptor (from the earlier reading's assay name)
T4 sequence (P35372 whole entry): as the sequence (P35372 whole entry) above
Protocol: (§8) Opioid-receptor-specific functional activity was assessed in cyclicAMP (cAMP) assays by PDSP.

DOR = biological target: T5, DOR (Homo sapiens, UniProt P41143); assay: Gi signaling (inhibition of cAMP) in opioid-receptor-expressing HEK cells, DOR; assay type: cell-based
T5 construct: host or cells: HEK cells expressing the receptor (from the earlier reading's assay name)
T5 sequence (P41143 whole entry): as the sequence (P41143 whole entry) above
Protocol: as §8

KOR = KOR (Homo sapiens, UniProt P41145); assay: cell-based; settings: HEK cells; means and SEMs of 3–6 assays; read-out: IC50 KOR (κ), cAMP
Chain of KOR (P41145 whole entry): as the sequence (P41145 whole entry) above

[5] = tail flick, 10 mg/kg morphine, 1.8 mg/kg A2
[6] = male, Sprague-Dawley, iv, brain dialysate, read-out: Tmax Brain (dialysate) (converted)
[7] = male, Sprague-Dawley, iv, plasma, read-out: Tmax Plasma (converted)
[8] = male, Sprague-Dawley, brain dialysate, iv, 10 mg/kg, brain dialysate, read-out: Half-life Brain (dialysate)
[9] = male, Sprague-Dawley, plasma, iv, 10 mg/kg
[10] = male, Sprague-Dawley, plasma, iv, 10 mg/kg, plasma 0-55 min, n=3
[11] = male, Sprague-Dawley, plasma, iv, 10 mg/kg, plasma, read-out: Half-life Plasma

## CN1CC[C@]23c4c5ccc(O)c4O[C@H]2[C@@H](O)C=C[C@H]3[C@H]1C5 [morphine]
[1]; female CD-1 mice, %MPE at peak response, read-out: Tail flick ED50 Female
  ED50: 1.57 ± 0.35 mg/kg
[1]; female CD-1 mice, read-out: Tail flick ED50 Female
  ED50: 4.69 ± 1.08 µmol/kg
[1]; male CD-1 mice, read-out: Tail flick ED50 Male
  ED50: 3.74 ± 0.39 µmol/kg
[1]; tail flick
  Time of peak response: 20 to 30 min
[1]; tail flick, 5.6 mg/kg
  Duration of antinociception: ~2 h
[1]; [5]
  Antinociception at matched doses: 100 %MPE
  Duration of antinociception at matched doses: > 3 h
Male and female DBA mice; female DBA mice, %MPE at peak response, read-out: Hot plate ED50 Female
  ED50: 2.33 ± 0.18 mg/kg
Male and female DBA mice; female DBA mice, read-out: Hot plate ED50 Female
  ED50: 6.99 ± 0.52 µmol/kg
Male and female DBA mice; male DBA mice, %MPE at peak response, read-out: Hot plate ED50 Male
  ED50: 2.82 ± 0.24 mg/kg
Male and female DBA mice; male DBA mice, read-out: Hot plate ED50 Male
  ED50: 8.43 ± 0.73 µmol/kg
Male and female DBA mice; hot plate
  Time of peak response: 30 to 45 min

## NC(=O)[C@H](CO[C@@H]1O[C@H](CO)[C@@H](O)[C@H](O)[C@H]1O)NC(=O)[C@@H]1CCC(=O)NCCCC[C@@H](NC(=O)[C@@H](N)Cc2ccc(O)cc2)C(=O)N[C@@H](Cc2c[nH]c3ccccc23)C(=O)N[C@@H](Cc2ccccc2)C(=O)N1 [Analog A1]
[2]; [6]
  Tmax: 5 min
[2]; [7]
  Tmax: 1 min
[2]; [8]
  half-life: 16.6 ± 7.9 min
[2]; [9]
  Cmax: 15.7 ± 7.4 µM
[2]; [10]
  AUC: 2.62 µM·h
[2]; [11]
  half-life: 25.9 ± 5.7 min
[2]; 0-55 min
  AUC of plasma, increase over ZH853: ~ 1.5 fold
[2]; 0-60 min
  AUC of estimated CSF, increase over ZH853: ~ 8 fold
[2]; brain dialysate, 10 mg/kg
  Cmax Brain (dialysate): 10.8 ± 6.5 µM and 11 ± 7 µM
[2]; n=3, 10 mg/kg
  AUC Brain (estimated CSF, brain dialysate): 141.0 ± 69.2 µM·min and 141 ± 69 µM·min

## NC(=O)[C@H](CO)NC(=O)[C@@H]1CCC(=O)NCCCC[C@@H](NC(=O)[C@@H](N)Cc2ccc(O)cc2)C(=O)N[C@@H](Cc2c[nH]c3ccccc23)C(=O)N[C@@H](Cc2ccccc2)C(=O)N1 [Analog A8]
[3]
  Ki: 1260 ± 145 nM

## NC(=O)[C@H](CO[C@@H]1O[C@H](CO)[C@@H](O)[C@H](O)[C@H]1O)NC(=O)[C@@H]1CCC(=O)NCCCC[C@@H](NC(=O)[C@@H](N)Cc2ccc(O)cc2)C(=O)N[C@@H](Cc2cccc3ccccc23)C(=O)N[C@@H](Cc2ccccc2)C(=O)N1 [Analog A6] (H-Y[dK][1Nal]FES(βGlc)-NH2; lactam 2-5; N-terminus assumed)
Mu opioid receptor (MOR); relative to unglycosylated peptides
  Shift (reduction) of MOR affinity by glycosylation: ~5 fold

## NC(=O)CNC(=O)[C@@H]1CCC(=O)NCCCC[C@@H](NC(=O)[C@@H](N)Cc2ccc(O)cc2)C(=O)N[C@@H](Cc2c[nH]c3ccccc23)C(=O)N[C@@H](Cc2ccccc2)C(=O)N1 [ZH853]
[2]; [6]
  Tmax: 28 min
[2]; [7]
  Tmax: 2 min
[2]; [8]
  half-life: 6.1 ± 0.7 min
[2]; [9]
  Cmax: 16.5 ± 3 µM
[2]; [10]
  AUC: 1.83 µM·h
[2]; [11]
  half-life: 15.9 ± 2.3 min
[2]
  AUC CSF/Plasma ratio: 0.189
[2]; brain dialysate, 10 mg/kg
  Cmax Brain (dialysate): 1.5 ± 0.2 µM and 2 ± 0.2 µM
  Half-life Brain (dialysate): 6 ± 0.7 min
[2]; plasma 0-55 min, n=3, 10 mg/kg
  AUC Plasma: 110 ± 37 µM·min
[2]; plasma, 10 mg/kg
  Cmax: 17 ± 3 µM
  Half-life Plasma: 16 ± 2 min
[2]; n=3, 10 mg/kg
  AUC Brain (estimated CSF, brain dialysate): 20.7 ± 7.9 µM·min and 21 ± 8 µM·min
Mu opioid receptor (MOR)
  Ki: 0.61 ± 0.2 nM
Mu opioid receptor (MOR); mean ± SEM of 3 replicate assays
  Ki MOR (μ): subnanomolar
Mu opioid receptor (MOR); ratio of Ki
  Selectivity δ/μ (binding): 631
  Selectivity κ/μ (binding): 2353
[4]
  Ki: 385 ± 61 nM
[3]
  Ki: 1440 ± 306 nM
MOR
  IC50: 0.07 ± 0.04 nM
MOR; ratio of IC50
  Selectivity δ/μ (cAMP): 5220
  Selectivity κ/μ (cAMP): 31460
DOR
  IC50: 377 ± 166 nM
KOR
  IC50: 2270 ± 273 nM
